# Assay results from US9782424B2, “Synergistic combination comprising avermectins and a NSAID for tumor inhibition” (Ectin Research AB, priority 2011, dated 2017).
# Values joined by “and” are separate entries in the source; they are usually repeats but may differ in a detail not shown here. Identical values can stand only once.
# Tests used:
# [1] = tested on: urinary bladder cell line (UM-UC-3); assay: XTT-assay proliferation rate, urinary bladder cell line; assay type: cell-based, human; settings: for Proliferation rate compared to untreated medium control: UM-UC-3 (Table 3); for Proliferation rate in per cent compared to untreated medium control: UM-UC-3
# Method: (§1) Commercially available human tumor cell lines were purchased from ATCC (ATCC/LGC-standards, Borás, Sweden). […] Briefly, ampoules of frozen cells were thawed by submerging into a 37° C. water bath for 45 s. […] With supernatant discarded, cell pellets were further resuspended with 5 ml complete medium into 25 cm^2 cell culture flasks (Cell+, Sarstedt, Nümbrecht, Germany). Tumor cells were cultured until sub-confluence and further sub-cultured with Trypsin (0.5%), EDTA (0.2%) solution (T4174, TE-10x, Sigma) in sterile sodium chloride. Culture media was changed two-three times a week. Culture flasks (Cell+, Sarstedt, Nümbrecht, Germany) and culture plates (Falcon/BD, Franklin Lakes, N.J., USA) were used for experimental set-ups. Cells were regularly monitored using an inverted microscope connected to a digital photo equipment (Axiovert 25 and Axiovision, Zeiss, Carl Zeiss AG, Germany) (FIG. 1). Described culture techniques and equipment have been used extensively in the laboratory
# (§2) The proliferation rates of the different human tumor cell lines were studied using a method based on the conversion of a sodium salt (XTT-assay, Sigma) into a stable orange color that could be analyzed in a spectrophotometer. […] The color change was measured using a 96-well plate reader with software to calculate the absorbance at 450 nm (V-max/Softmax Pro, Molecular Devices, USA).
# (§3) Increasing concentrations of substance ivermectin was added with an 8-channel pipette (Titertek, Kem-En-Tec, Taastrup, Denmark) together with sterile pipette tips (Molecular Bioproducts, San Diego, Calif., USA). Cell cultures including active substances were incubated for 24 hours (and 96 hours). Untreated wells including culture medium only served as untreated controls. The XTT-assay substrate was added and after gentle agitation using a micro plate shaker, absorbencies at 450 and 650 nm were measured. Levels from medium were subtracted and compared with control wells, using culture medium only.
# prostate cells (LNCaP) = assay: Morphology of cultured tumor cells, LNCaP; assay type: cell-based, human; settings: for Effect on morphology: 24 hours (FIG. 8)
# Method: as §1
# (§4) The effect of Ivermectin, selamectin, abamectin alone, or in combination with ketoconazole, albendazole, ibuprofen, diclofenac and celecoxib on the morphology of cultured human tumor cells was studied. The effect of ivermectin in the presence of increasing concentration of ivermectin was also investigated. Cells were grown into sub-confluence and then sub-cultured into 12 and 24 well plates (Sarstedt, Falcon/BD) for morphology studies, or in 96 well plates (Sarstedt, Falcon/BD) for proliferation studies.
# [2] = tested on: breast cell line (ZR-75-1); assay: XTT-assay proliferation rate, breast cell line; assay type: cell-based, human; settings: for Proliferation rate in per cent compared to untreated medium control: 2R-75-1 breast Ca; for Proliferation rate compared to untreated control: ZR-75-1 (Table 6)
# Method: as §1, §2, §3
# [3] = tested on: human urinary bladder cancer cells; assay: Tryphan blue exclusion viability; assay type: cell-based; settings: compared to untreated medium control (FIG. 3)
# Method: as §4, with “studies. Viability of urinary bladder cells was studied using the tryphan blue exclusion method (Freshney R. Culture of animal cells: A manual of basic techniques. New York: Alan R Liss Inc; 1987).” for “studies.”
# [4] = tested on: colorectal cell line (Colo205); assay: XTT-assay proliferation rate, colorectal cell line Colo205; assay type: cell-based, human; settings: for Proliferation rate compared to medium control: Colo205 (Table 4); for Proliferation rate in per cent compared to untreated medium control: Colo205
# From the text: Commercially available human tumor cell lines were purchased from […], Borás, Sweden). Cell lines from urinary bladder (UM-UC-3, #CRL-1749), colorectal carcinoma (Colo205, #CCL-222 and HT29, #HTB-38), prostate carcinoma (LNCaP, #CRL-1740) and breast carcinoma (ZR-75-1, #CRL-1500) were purchased and stored in liquid nitrogen. […] Tumor cell lines were handled aseptically using a laminar airflow (LAF) bench (Holten 2448, Ninolab, Sweden) and stored in a liquid nitrogen tank and were initiated in culture as previously described (Falk P. Experimental models of the peritoneal environment: Effects of TGF-beta and Hyaluronan. Göteborg: University of Gothenburg; 2008). Briefly, ampoules of frozen cells were thawed by submerging into a 37° C. water bath for 45 s. […] Culture media was changed two-three times a week. Culture flasks (Cell+, Sarstedt, Nümbrecht, Germany) and culture plates (Falcon/BD, Franklin Lakes, N.J., USA) were used for experimental set-ups. […] Described culture techniques and equipment have been used extensively in the laboratory The proliferation rates of the different human tumor cell lines were studied using a method based on the conversion of a sodium salt (XTT-assay, Sigma) into a stable orange color that could be analyzed in a spectrophotometer. The color change is proportional to the mitochondrial dehydrogenase activity resulting in an effective technique for measuring cell toxicity (Roehm N W, Rodgers […], Glasebrook A L. An improved colorimetric assay for cell proliferation and viability utilizing the tetrazolium salt XTT. […] The color change was measured using a 96-well plate reader with software to calculate the absorbance at 450 nm (V-max/Softmax Pro, Molecular Devices, USA). […] RPMI 1640 and EMEM without phenol red was used during the experiments to reduce the red color background signal in the XTT-assay. […] Untreated wells including culture medium only served as untreated controls. The XTT-assay substrate was added and after gentle agitation using a micro plate shaker, absorbencies at 450 and 650 nm were measured. Levels from medium were subtracted and compared with control wells, using culture medium only.
# [5] = tested on: colorectal cells (Colo205); assay: Morphology of cultured tumor cells, Colo205; assay type: cell-based, human
# Method: as §1, §4
# [6] = tested on: colorectal cell line HT29; assay: Morphology of cultured tumor cells, HT29; assay type: cell-based, human
# Method: as §1
# The effect of Ivermectin, selamectin, abamectin alone, or in combination with ketoconazole, albendazole, ibuprofen, diclofenac and celecoxib on the morphology of cultured human tumor cells was studied. The effect of ivermectin in the presence of increasing concentration of ivermectin was also investigated. […]
# [7] = ivermectin 10e-4 to 10e-10 mol/L (FIG. 2)
substance,measurement,setting,value
"22,23-dihydroavermectin B1a+22,23-dihydroavermectin B1b [ivermectin]",Proliferation rate compared to untreated medium control,[1]; IVM 1 μmol/L alone,99 ± 1%
same,Proliferation rate compared to untreated medium control,[1]; IVM 10 μmol/L alone,105 ± 3%
same,Proliferation rate compared to untreated medium control,[1]; IVM 100 μmol/L alone,90±1%
same,Proliferation rate compared to untreated medium control,"[1]; IVM 100 μmol/L alone, listed as IVM",90 ± 1%
same,Proliferation rate in per cent compared to untreated medium control,[1]; ivermectin 10e-9 mol/L,100 ± 3%
same,Proliferation rate in per cent compared to untreated medium control,[1]; ivermectin 10e-8 mol/L,96 ± 5%
same,Proliferation rate in per cent compared to untreated medium control,[1]; ivermectin 10e-7 mol/L,95 ± 9%
same,Proliferation rate in per cent compared to untreated medium control,[1]; ivermectin 10e-6 mol/L,91 ± 3%
same,Proliferation rate in per cent compared to untreated medium control,[1]; ivermectin 10e-5 mol/L,34±8% and 34 ± 6%
same,Proliferation rate in per cent compared to untreated medium control,[1]; ivermectin 10e-4 mol/L,34±3%
same,Effect on morphology,prostate cells (LNCaP); ivermectin 100 μM,affected
same,Morphological effects over the concentration series,prostate cells (LNCaP); [7],affected by the highest concentration 10e-4 mol/L only
same,Effect on morphology,prostate cells (LNCaP); ivermectin 1 and 10 μM,No effect
same,Proliferation rate in per cent compared to untreated medium control,[2]; ivermectin 10e-9 mol/L,114 ± 31%
same,Proliferation rate in per cent compared to untreated medium control,[2]; ivermectin 10e-8 mol/L,128 ± 30%
same,Proliferation rate in per cent compared to untreated medium control,[2]; ivermectin 10e-7 mol/L,105 ± 35%
same,Proliferation rate in per cent compared to untreated medium control,[2]; ivermectin 10e-6 mol/L,95 ± 37%
same,Proliferation rate in per cent compared to untreated medium control,[2]; ivermectin 10e-5 mol/L,124 ± 34%
same,Proliferation rate in per cent compared to untreated medium control,[2]; ivermectin 10e-4 mol/L,7±2%
same,Proliferation rate compared to untreated control,[2]; IVM 1 μmol/L alone,90.0 ± 5.2%
same,Proliferation rate compared to untreated control,[2]; IVM 10 μmol/L alone,60.5 ± 10.6%
same,Proliferation rate compared to untreated control,[2]; IVM 100 μmol/L alone,14.4 ± 1.7%
same,Effect on proliferation rate compared to untreated control,"[2]; ZR-75-1, ivermectin 100 μM alone or in combination",reduced the proliferation rate
same,Tryphan blue exclusion (viability),[3],affected cells in a dose-dependent manner
same,Proliferation rate compared to medium control,[4]; IVM 1 μmol/L alone,101.3 ± 4.9%
same,Proliferation rate compared to medium control,[4]; IVM 10 μmol/L alone,97.7 ± 8.5%
same,Proliferation rate compared to medium control,[4]; IVM 100 μmol/L alone,69.4 ± 11.5%
same,Proliferation rate in per cent compared to untreated medium control,[4]; ivermectin 10e-9 mol/L,97 ± 14%
same,Proliferation rate in per cent compared to untreated medium control,[4]; ivermectin 10e-8 mol/L,104 ± 8%
same,Proliferation rate in per cent compared to untreated medium control,[4]; ivermectin 10e-7 mol/L,69±9%
same,Proliferation rate in per cent compared to untreated medium control,[4]; ivermectin 10e-6 mol/L,42±12%
same,Proliferation rate in per cent compared to untreated medium control,[4]; ivermectin 10e-5 mol/L,6±1%
same,Proliferation rate in per cent compared to untreated medium control,[4]; ivermectin 10e-4 mol/L,4±1%
same,Effect on morphology,[5]; ivermectin,affected cell structure
same,Effect on morphology,[5]; ivermectin 10 μM,no effect
same,"Decreased growth of cells, substances tested alone","[5]; ivermectin 10 μM alone, albendazole 20 and 40 μM alone (FIG. 11)",not seen
same,Morphological effects over the concentration series,[5]; [7],affected even at 10e-6 mol/L
same,Effect on morphology,[6]; ivermectin 100 μM,affected
same,Morphological effects over the concentration series,[6]; [7],not morphologically affected even at the highest concentration
